In patent US20220402980A1, “CHROMOGRANIN A-DERIVED PEPTIDES AND USES THEREOF” (OSPEDALE SAN RAFFAELE S.R.L., priority 2019, published 2022):
Where no end group is shown, it is not given here.

How the values were obtained:
αvβ6 = target: T1, αvβ6 (Homo sapiens, UniProt P06756+P18564); assay: Direct binding of peptide-IRDye conjugates to αvβ6-coated microtiter plates; conditions: purified integrin
T1 construct: recombinant human αvβ6 extracellular domain (R&D Systems); purchased R&D Systems (Minneapolis, Minn.)
T1 sequence (P06756 31-992 limits assumed): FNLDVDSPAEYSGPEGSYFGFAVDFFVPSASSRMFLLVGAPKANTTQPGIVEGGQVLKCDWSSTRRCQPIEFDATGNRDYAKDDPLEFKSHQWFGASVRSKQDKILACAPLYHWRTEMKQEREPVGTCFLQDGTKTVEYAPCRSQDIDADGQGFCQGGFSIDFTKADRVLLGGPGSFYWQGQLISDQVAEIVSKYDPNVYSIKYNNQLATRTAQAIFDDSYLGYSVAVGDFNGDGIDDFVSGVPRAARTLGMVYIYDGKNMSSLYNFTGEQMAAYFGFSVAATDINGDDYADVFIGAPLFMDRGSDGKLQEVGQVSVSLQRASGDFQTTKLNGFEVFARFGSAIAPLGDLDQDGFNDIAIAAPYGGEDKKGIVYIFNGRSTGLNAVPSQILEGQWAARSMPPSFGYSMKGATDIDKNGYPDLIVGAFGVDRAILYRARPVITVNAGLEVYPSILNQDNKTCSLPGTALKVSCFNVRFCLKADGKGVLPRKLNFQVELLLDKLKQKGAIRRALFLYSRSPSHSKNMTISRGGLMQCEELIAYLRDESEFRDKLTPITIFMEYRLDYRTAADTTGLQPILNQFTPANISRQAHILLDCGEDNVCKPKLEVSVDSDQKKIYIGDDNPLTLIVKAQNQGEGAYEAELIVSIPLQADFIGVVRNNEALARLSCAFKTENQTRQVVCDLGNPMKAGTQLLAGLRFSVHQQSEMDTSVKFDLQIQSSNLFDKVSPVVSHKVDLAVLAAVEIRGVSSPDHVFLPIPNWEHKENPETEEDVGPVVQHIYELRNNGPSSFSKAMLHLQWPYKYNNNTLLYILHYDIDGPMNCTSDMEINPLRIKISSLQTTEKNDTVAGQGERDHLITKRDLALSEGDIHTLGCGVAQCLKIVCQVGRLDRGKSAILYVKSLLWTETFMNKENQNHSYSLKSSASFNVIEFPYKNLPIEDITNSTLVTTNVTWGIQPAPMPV
T1 sequence (P18564 22-709 limits assumed): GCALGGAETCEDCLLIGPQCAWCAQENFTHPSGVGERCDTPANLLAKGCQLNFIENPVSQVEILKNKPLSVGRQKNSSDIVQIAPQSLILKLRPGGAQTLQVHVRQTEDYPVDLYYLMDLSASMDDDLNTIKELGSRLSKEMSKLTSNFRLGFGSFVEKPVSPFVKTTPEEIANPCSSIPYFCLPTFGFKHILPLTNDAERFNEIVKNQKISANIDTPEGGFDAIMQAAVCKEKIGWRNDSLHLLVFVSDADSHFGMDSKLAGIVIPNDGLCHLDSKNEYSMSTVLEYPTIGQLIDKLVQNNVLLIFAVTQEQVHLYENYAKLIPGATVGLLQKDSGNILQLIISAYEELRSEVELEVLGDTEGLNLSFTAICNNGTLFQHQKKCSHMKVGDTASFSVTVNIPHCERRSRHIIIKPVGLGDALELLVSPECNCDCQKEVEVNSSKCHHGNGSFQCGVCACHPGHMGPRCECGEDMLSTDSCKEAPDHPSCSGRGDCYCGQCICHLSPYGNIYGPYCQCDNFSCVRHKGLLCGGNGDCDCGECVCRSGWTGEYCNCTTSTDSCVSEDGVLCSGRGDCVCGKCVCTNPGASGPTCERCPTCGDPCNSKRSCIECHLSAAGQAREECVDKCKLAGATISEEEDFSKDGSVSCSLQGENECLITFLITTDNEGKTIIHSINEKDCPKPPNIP
Protocol: (§1) Binding of 5a-IRDye and 2a-IRDye to microtiterplates coated with or without αvβ6 or αvβ8 as indicated in each panel. Various amounts of conjugates were added to microtiterplates and incubated for 1 h at room temperature (see Experimental section). After washing, bound fluorescence was measured using an Odyssey CLx (LI-COR) scanner. Representative images of the scanned plate and quantification of the binding are reported. Mean ±SE of triplicates. Effective concentration 50 (EC50, mean±SD) of the indicated number of independent experiments is shown.
(§2) Binding of 5a-IRDye, 2a-IRDye and Cys-IRDye to αvβ6 and αvβ8 was determined by direct binding assays as follows: 96-well clear-bottom black microtiterplates (Corning® cat. 3601) were coated with 4 μg/ml αvβ6 or αvβ8, in Dulbecco's phosphate-buffered saline with Ca2+ and Mg2+(DPBS, 50 ul/well) and left to incubate over-night at 4° C. […] The bound fluorescence was then quantified by scanning the empty plates with an Odyssey CLx near-infrared fluorescence imaging system (LI-COR) using the following settings: scan intensity, 8.5; scan focus offset, 3; scan quality, highest; channel, 800; resolution, 169 pm.

αvβ8 = αvβ8 (Homo sapiens, UniProt P06756+P26012); assay: Direct binding of peptide-IRDye conjugates to αvβ8-coated microtiter plates; conditions: purified integrin
Sequence of αvβ8 (P06756 31-992 limits assumed): as the sequence (P06756 31-992 limits assumed) above
Sequence of αvβ8 (P26012 43-684 limits assumed): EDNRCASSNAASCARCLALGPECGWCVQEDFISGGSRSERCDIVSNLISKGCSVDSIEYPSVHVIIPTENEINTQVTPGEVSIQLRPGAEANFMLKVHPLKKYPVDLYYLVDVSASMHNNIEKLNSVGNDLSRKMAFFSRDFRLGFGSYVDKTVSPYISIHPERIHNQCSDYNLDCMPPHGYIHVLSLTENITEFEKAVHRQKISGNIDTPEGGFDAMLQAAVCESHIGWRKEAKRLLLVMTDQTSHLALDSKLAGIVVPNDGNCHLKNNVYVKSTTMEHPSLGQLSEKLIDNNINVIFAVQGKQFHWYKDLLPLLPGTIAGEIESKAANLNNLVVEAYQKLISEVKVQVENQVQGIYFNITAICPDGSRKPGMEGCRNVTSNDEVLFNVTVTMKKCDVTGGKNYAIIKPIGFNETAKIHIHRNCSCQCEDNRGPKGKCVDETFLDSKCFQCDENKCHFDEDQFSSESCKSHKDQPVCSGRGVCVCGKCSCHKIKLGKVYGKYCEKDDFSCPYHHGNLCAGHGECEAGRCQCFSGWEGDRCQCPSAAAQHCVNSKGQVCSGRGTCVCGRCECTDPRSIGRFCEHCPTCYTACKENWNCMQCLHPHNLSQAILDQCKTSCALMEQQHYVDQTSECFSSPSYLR
Protocol: as §1, §2

BxPC-3 cells = assay: Binding of peptide-IRDye conjugates to cultured BxPC-3 cells; format: cell-based, human; conditions: BxPC-3 (αvβ6+ αvβ8-), 1 h at 37° C.
Protocol: (§3) B) Binding of the indicated peptide-IRDye conjugates to the various cell lines. Various amounts of conjugates were added to cell monolayers (grown in 96-well microtiter plates) and incubated for 1 h at 37° C., 5% CO2 (see Experimental section). After washing, bound fluorescence was measured using an Odyssey CLx (LI-COR) scanner. A representative image of the scanned plate and binding quantification are reported. Mean ±SE of quadruplicate wells.
(§4) Various amounts of unlabeled peptides were mixed 5a-IRDye (4 nM) and added to the cells. After 1 h, the plates were washed, and the bound fluorescence was quantified as described above (left panels).
(§5) The binding of peptide-IRDye conjugates to BxPC-3, 5637, HUVECs, 4T1, K8484 and DT6606 cells was analyzed as follows. The cells were grown in 96-well clear-bottom black microtiterplates (Corning® cat. 3603, 2-3x10^4 cells/well, plated 48 h before the experiment). After washing twice with 0.9% sodium chloride solution, the cells were incubated with 25 mM Hepes buffer, pH 7.4, containing 150 mM sodium chloride, 1 mM magnesium chloride, 1 mM manganese chloride and 1% BSA (binding buffer) for 5 min. Peptide-IRDye conjugates (0.013-40 nM in binding buffer) were then added to the cells and left to incubate for 1 h at 37° C., 5% CO2. After three washings with binding buffer (5 min each, 200 al/well), the cells were fixed with PBS containing 2% paraformaldehyde and 3% sucrose for 15 min at room temperature. Binding of conjugates to cells was quantified by scanning the plate (filled with PBS, 100 al/well) with the Odyssey CLx (LI-COR) using the following settings: scan intensity, 8.5; scan focus offset 4; scan quality, highest; channel, 800; resolution, 169 pm. Then, the plates were incubated with 5 μg/ml of 4′,6-diamidino-2-phenylindole (DAPI) for 15 min, washed twice with PBS and read with a VICTOR3 plate reader (Perkin Elmer, Waltham, Mass., USA) to quantify the cell number in each well, using the following filters: excitation, 355±40 nm; emission, 460±25 nm (acquisition,1 s).

5637 cells [1] = assay: Binding of peptide-IRDye conjugates to cultured 5637 cells; format: cell-based, human; conditions: 5637 (αvβ6+ αvβ8+), 1 h at 37° C.
Protocol: as §3, §4, §5

HUVEC = assay: Binding of peptide-IRDye conjugates to cultured HUVEC; format: cell-based, human; conditions: HUVEC (lacking these integrins)
Protocol: as §3
The binding of peptide-IRDye conjugates to BxPC-3, 5637, HUVECs, 4T1, K8484 and DT6606 cells was analyzed as follows. The cells were grown in 96-well clear-bottom black microtiterplates (Corning® cat. 3603, 2-3x10^4 cells/well, plated 48 h before the experiment). […] Binding of conjugates to cells was quantified by scanning the plate (filled with PBS, 100 al/well) with the Odyssey CLx (LI-COR) using the following settings: scan intensity, 8.5; scan focus offset 4; scan quality, highest; channel, 800; resolution, 169 pm. Then, the plates were incubated with 5 μg/ml of 4′,6-diamidino-2-phenylindole (DAPI) for 15 min, washed twice with PBS and read with a VICTOR3 plate reader (Perkin Elmer, Waltham, Mass., USA) to quantify the cell number in each well, using the following filters: excitation, 355±40 nm; emission, 460±25 nm (acquisition,1 s).

[2] = tested on: subcutaneous BxPC-3 tumors; conditions: mouse, in vivo
in vivo = conditions: female, NSG, mouse, iv, 1.28 nmol
5637 cells [3] = assay: Binding assay of 5-Qdot to human 5637 cells (FACS, fluorescence microscopy); format: cell-based; conditions: flow cytometry and fluorescence microscopy
Protocol: FIG. 3. Binding of CgA-derived peptides to human bladder cancer 5637 cells. a) Effect of 1, 4, 5 and 6 on the binding of anti-αvβ6 mAb 10D5 to 5637 cells. Antibody binding quantification as determined by flow cytometry analysis (FACS) (see also FIG. 11A). Compounds were mixed with mAb 10D5 and added to cells; mAb binding was detected by FACS and inhibitory concentration (IC50, mean±SEM) was determined. Each point is in duplicate. b) Binding of 5-Qdot or *Qdot (control) to 5637 cells as measured by FACS. Representative FACS (left and middle) and quantification of Qdot binding (right) (circles: mean±SD of duplicates). c) Representative fluorescence bioimaging of 5637 cells incubated with 5-Qdot, *Qdot or diluent. […]
Binding assays of 5-Qdot and *Qdot to 5637 cells were carried out as follows: 5637 cells were grown in chamber slides (6×10^4 cells/well). […] The cells were washed again with binding buffer, fixed with paraformaldehyde for 20 min, counterstained with DAPI (0.05 μg/ml, Invitrogen), and analyzed using a fluorescence microscopy (Carl Zeiss, Axioscop 40FL; excitation, filter, BP 560/40 nm; beam splitter filter, FT 585 nm; emission filter, 630/75 nm). […] After washing with 25 mM Hepes buffer, pH 7.4, containing 150 mM NaCl, 1 mM MgCl2, 1 mM MgCl2, the cells were fixed with formaldehyde and analyzed using the CytoFLEX S (Beckman Coulter).

Compound | binding to αvβ6-coated plates (αvβ6) | binding to αvβ8-coated plates (αvβ8) | binding of conjugate to cells (BxPC-3 cells) | binding of conjugate to cells (5637 cells [1]) | binding of conjugate to cells (HUVEC) | tumor signal twenty-four hours after injection [2] | time of maximal tumor uptake after injection ([2]; iv) | tissue to tissue ratio at 24 h (in vivo) | binding of Qdot conjugate to cells (5637 cells [3])
2a-IRDye: control peptide 2a coupled via Cys to maleimide-IRDye 800CW (C(maleimide‑IRDye 800CW)FETLRGEERILSILRHQNLLKELQD) [reference compound] | not | not | not | not | – | – | – | – | –
CC[C@H](C)[C@H](NC(=O)[C@H](CCCNC(=N)N)NC(=O)[C@H](CC(C)C)NC(=O)[C@H](CC(=O)O)NC(=O)CNC(=O)[C@H](CCCNC(=N)N)NC(=O)[C@H](CC(C)C)NC(=O)[C@@H](NC(=O)[C@H](CCC(=O)O)NC(=O)[C@H](Cc1ccccc1)NC(=O)[C@@H](N)CSC1CC(=O)N(CCNC(=O)CCCCCN2C(=CC=C3CCCC(C=CC4=[N+](CCCCS(=O)(=O)[O-])c5ccc(S(=O)(=O)O)cc5C4(C)C)=C3Oc3ccc(S(=O)(=O)O)cc3)C(C)(C)c3cc(S(=O)(=O)O)ccc32)C1=O)[C@@H](C)O)C(=O)N[C@@H](CC(C)C)C(=O)N[C@@H](CO)C(=O)N[C@H](C(=O)N[C@@H](CC(C)C)C(=O)N[C@@H](CCCNC(=N)N)C(=O)N[C@H]1Cc2cn(nn2)CCCC[C@@H](C(=O)N[C@@H](CCCCN)C(=O)N[C@@H](CCC(=O)O)C(=O)N[C@@H](CC(C)C)C(=O)N[C@@H](CCC(N)=O)C(=O)N[C@@H](CC(=O)O)C(N)=O)NC(=O)[C@H](CC(C)C)NC(=O)[C@H](CC(N)=O)NC(=O)[C@H](CCC(N)=O)NC1=O)[C@@H](C)CC (some centres unmarked) [5a-IRDye] | – | – | could bind, in a dose dependent manner | could bind, in a dose dependent manner | little or not | significant signal was still visible | 1 h | 12 | –
*Qdot: control nanoconjugate without the targeting ligand; Qdot coupled to control peptide cyclic head-to-tail c(CGARAG) (cyclo(CGARAG); also: coupled to Qdot (control nanoconjugate)) [reference compound] | – | – | – | – | – | – | – | – | not
